The values below come from publication PMC3462610 (Biochemical Journal, 2011).

In assay [1] the target is activated His–JNK2–FLAG (Homo sapiens, UniProt P45984). The assay can be described thus: biochemical.
The test system of assay [2] is endogenous JNK2. The assay can be described thus: Co-immunoprecipitation of endogenous WDR62 with JNK2, HEK-293T. The format is binding, human. The note with it: anti-WDR62 3G8.
The subject of assay [3] is Endogenous MKK7. The assay can be described thus: Co-immunoprecipitation of endogenous WDR62 with MKK7, HEK-293T. The format is binding, human. The note with it: anti-WDR62 3G8.
The subject of assay [4] is JNK1. The assay can be described thus: Co-immunoprecipitation of endogenous WDR62 with JNK1, HEK-293T. The format is binding, human. The note with it: authors attribute it to lower JNK1 expression level.
The test system of assay [5] is JNK3. The assay can be described thus: GST pull-down with WDR62 1018-C–GST constructs. The format is binding, human. The note with it: HEK-293T.
In assay [6] the test system is EGFP–JNK1. The assay can be described thus: Immunofluorescence, recruitment of EGFP–JNK1 to cellular granules in HeLa cells. The format is cell-based, human. As to conditions: 24 h after transfection, confocal microscopy.
Assay [7] relates to MKK7α and MKK7β. The note with it: cited from earlier work.

Where no end group is shown, it is not given here.

activated His–JNK2–FLAG, sequence (P45984 whole entry): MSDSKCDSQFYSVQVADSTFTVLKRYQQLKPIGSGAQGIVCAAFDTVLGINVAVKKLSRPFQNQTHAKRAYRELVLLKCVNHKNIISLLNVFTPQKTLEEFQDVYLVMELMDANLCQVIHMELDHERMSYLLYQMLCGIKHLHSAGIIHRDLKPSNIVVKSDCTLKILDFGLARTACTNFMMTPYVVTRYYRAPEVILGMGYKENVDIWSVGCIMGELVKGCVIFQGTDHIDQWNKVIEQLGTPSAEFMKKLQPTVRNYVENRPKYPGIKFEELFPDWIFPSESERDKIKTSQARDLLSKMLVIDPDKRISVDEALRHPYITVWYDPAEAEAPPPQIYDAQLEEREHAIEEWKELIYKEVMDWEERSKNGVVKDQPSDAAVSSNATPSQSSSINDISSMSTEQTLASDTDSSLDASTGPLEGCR

In general, IC50 refers to the point on the concentration scale where inhibition reaches its midpoint. Read a low IC50 as greater potency in that assay. In turn, “GRKKRRQRRRPPNHEARANLRLTLSSACDGLL [WDR62 peptide]” gave a half-maximal inhibitory concentration (IC50) in assay [1] of 5 µM.
Consider “WDR62: full-length WDR62 (endogenous, or Myc-tagged wild-type); JNK scaffold protein”, for which the “co-precipitation of endogenous JNK2” value in assay [2] was “presence of endogenous JNK2”. Moreover, in assay [3], the “co-precipitation of endogenous MKK7” value is “also detected”. Further, the “interaction with JNK1” value in assay [4] is on record as “lack of interaction”. The “association with JNK3” value in assay [5] is reported as “strongest association with the neuronal-enriched JNK3 isoform”. The “recruitment of EGFP–JNK1 to cellular granules” value in assay [6] is reported as “efficiently recruited to these granules”.

B1: JIP1 scaffold protein: JIP1 (JNK-interacting protein 1) scaffold protein (protein, UniProt Q9UQF2 1-711, looked up)
C-Jun-amino-terminal …: MAERESGGLGGGAASPPAASPFLGLHIASPPNFRLTHDISLEEFEDEDLSEITDECGISLQCKDTLSLRPPRAGLLSAGGGGAGSRLQAEMLQMDLIDATGDTPGAEDDEEDDDEERAARRPGAGPPKAESGQEPASRGQGQSQGQSQGPGSGDTYRPKRPTTLNLFPQVPRSQDTLNNNSLGKKHSWQDRVSRSSSPLKTGEQTPPHEHICLSDELPPQSGPAPTTDRGTSTDSPCRRSTATQMAPPGGPPAAPPGGRGHSHRDRIHYQADVRLEATEEIYLTPVQRPPDAAEPTSAFLPPTESRMSVSSDPDPAAYPSTAGRPHPSISEEEEGFDCLSSPERAEPPGGGWRGSLGEPPPPPRASLSSDTSALSYDSVKYTLVVDEHAQLELVSLRPCFGDYSDESDSATVYDNCASVSSPYESAIGEEYEEAPRPQPPACLSEDSTPDEPDVHFSKKFLNVFMSGRSRSSSAESFGLFSCIINGEEQEQTHRAIFRFVPRHEDELELEVDDPLLVELQAEDYWYEAYNMRTGARGVFPAYYAIEVTKEPEHMAALAKNSDWVDQFRVKFLGSVQVPYHKGNDVLCAAMQKIATTRRLTVHFNPPSSCVLEISVRGVKIGVKADDSQEAKGNKCSHFFQLKNISFCGYHPKNNKYFGFITKHPADHRFACHVFVSEDSTKALAESVGRAFQQFYKQFVEYTCPTEDIYLE
Consider B1, for which the “interaction with MKK7α and MKK7β” value in assay [7] was “interacts with both MKK7α and MKK7β”.
